Laboratory results as given in patent US12239134B2, “Plant antimicrobial compositions including an emulsifier and/or ozone and methods of use” (Arizona Board of Regents on Behalf of The University of …, priority 2018, dated 2025).
Read-outs that look alike come from different tables or passages of the source.

Columns and labels:
Salmonella Newport = assay: Biofilm formation on food contact surface coupons, direct plating; format: cell-based, Salmonella enterica; details: two-minute treatment
Protocol: A protocol based on direct plating was also evaluated for testing the biofilm formation by Salmonella or L. monocytogenes. Biofilms were formed on three different food contact surface coupons (HDPE, Buna-N rubber, and 316 stainless steel) for up to 3 days in 35 mm mini-petri dishes. Biofilms were formed using a 1:10 diluted TSB solution (10 mL) with either S. enterica or L. monocytogenes inoculum (100 μL). The diluted TSB was changed every 16-18 hours with new 1:10 diluted TSB (10 mL). Coupons were removed for sampling and enumeration of strongly attached bacteria at three different time points (Day 0, 1, and 3). The coupons were rinsed with deionized water five times to remove planktonic cells. Then the coupons were immersed in 10 mL of BPW. The coupons were sonicated for 2 minutes using different settings (Tables 11 and 12) for each organism. After sonication, the solution was serially diluted and plated on Tryptic Soy Agar (TSA). Plates were incubated at 37° C. for 24-48 hours. The colonies were counted and the colony forming units were determined for the various sonication settings, so that the appropriate setting with the most recovery could be determined. […] These settings were used in further experiments to recover the bacterial cells from coupons during sampling and enumeration (by spread plating) of the bacteria in biofilms.
The reduction in bacterial biofilm formation was also tested using a direct plating method. Biofilms were formed on six different food contact surface coupons (HDPE, Buna-N rubber, PC, PVC, and stainless steel 304 and 316) in separate 35 mm mini-petri dishes and evaluated at three different time points (Day 0, 1, and 3). Biofilms were formed using a 1:10 diluted TSB solution (10 mL) with either S. enterica or L. monocytogenes inoculum (100 μL). The coupons were also washed and treated with antimicrobial solutions containing the plant-based emulsifier and the essential oil/plant extracts at various concentrations. The diluted TSB was changed every 16-18 hours with new 1:10 diluted TSB (10 mL). The coupons were rinsed in the antimicrobial solution before adding them to the petri dishes containing the fresh, diluted TSB. After their specific time points, coupons were removed aseptically using sterile forceps from the petri dish. The coupons were rinsed by submerging in 25 mL of sterile deionized H2O and swirled five times to remove planktonic cells. After rinsing, they were placed into a new petri dish immersed in 10 mL of BPW. The coupons were sonicated for 2 minutes on ice using different settings for each organism. After sonication, the sonicated solution was serially diluted using 0.1% peptone water and spread plated on TSA in duplicate. Plates were incubated overnight at 37° C. for 24-48 hours, after which, the colonies were counted, to establish the efficacy of the antimicrobial solutions (Tables 17-25).

S. Newport = details: used alone, previous work, cited from earlier work

Cc1ccc(C(C)C)cc1O [Carvacrol, carvacrol]
Survivors of Salmonella Newport on food contact surface (Salmonella Newport; 0.5% with 0.0001% saponin microemulsion, Day 0, 304 SS): 4.75 Log CFU/mL | Survivors of Salmonella Newport on food contact surface (Salmonella Newport; 0.5% with 0.0001% saponin microemulsion, Day 0, 316 SS): 4.66 Log CFU/mL | Survivors of Salmonella Newport on food contact surface (Salmonella Newport; 0.5% with 0.0001% saponin microemulsion, Day 0, Buna N): 4.19 Log CFU/mL | Survivors of Salmonella Newport on food contact surface (Salmonella Newport; 0.5% with 0.0001% saponin microemulsion, Day 0, HDPE): <1 Log CFU/mL | Survivors of Salmonella Newport on food contact surface (Salmonella Newport; 0.5% with 0.0001% saponin microemulsion, Day 0, PC): <1 Log CFU/mL | Survivors of Salmonella Newport on food contact surface (Salmonella Newport; 0.5% with 0.0001% saponin microemulsion, Day 0, PVC): 2.74 Log CFU/mL | Survivors of Salmonella Newport on food contact surface (Salmonella Newport; 0.5% with 0.0001% saponin microemulsion, Day 1, 304 SS): 4.26 Log CFU/mL | Survivors of Salmonella Newport on food contact surface (Salmonella Newport; 0.5% with 0.0001% saponin microemulsion, Day 1, 316 SS): 4.42 Log CFU/mL | Survivors of Salmonella Newport on food contact surface (Salmonella Newport; 0.5% with 0.0001% saponin microemulsion, Day 1, Buna N): 4.65 Log CFU/mL | Survivors of Salmonella Newport on food contact surface (Salmonella Newport; 0.5% with 0.0001% saponin microemulsion, Day 1, HDPE): <1 Log CFU/mL | Survivors of Salmonella Newport on food contact surface (Salmonella Newport; 0.5% with 0.0001% saponin microemulsion, Day 1, PC): <1 Log CFU/mL | Survivors of Salmonella Newport on food contact surface (Salmonella Newport; 0.5% with 0.0001% saponin microemulsion, Day 1, PVC): 4.24 Log CFU/mL | Survivors of Salmonella Newport on food contact surface (Salmonella Newport; 0.5% with 0.0001% saponin microemulsion, Day 3, 304 SS): <1 Log CFU/mL | Survivors of Salmonella Newport on food contact surface (Salmonella Newport; 0.5% with 0.0001% saponin microemulsion, Day 3, 316 SS): <1 Log CFU/mL | Survivors of Salmonella Newport on food contact surface (Salmonella Newport; 0.5% with 0.0001% saponin microemulsion, Day 3, Buna N): <1 Log CFU/mL | Survivors of Salmonella Newport on food contact surface (Salmonella Newport; 0.5% with 0.0001% saponin microemulsion, Day 3, HDPE): <1 Log CFU/mL | Survivors of Salmonella Newport on food contact surface (Salmonella Newport; 0.5% with 0.0001% saponin microemulsion, Day 3, PC): <1 Log CFU/mL | Survivors of Salmonella Newport on food contact surface (Salmonella Newport; 0.5% with 0.0001% saponin microemulsion, Day 3, PVC): <1 Log CFU/mL | Survivors of Salmonella Newport on food contact surface (Salmonella Newport; 0.7% with 0.0001% saponin microemulsion, Day 0, 304 SS): 4.57 Log CFU/mL | Survivors of Salmonella Newport on food contact surface (Salmonella Newport; 0.7% with 0.0001% saponin microemulsion, Day 0, 316 SS): 4.24 Log CFU/mL | Survivors of Salmonella Newport on food contact surface (Salmonella Newport; 0.7% with 0.0001% saponin microemulsion, Day 0, Buna N): 4.44 Log CFU/mL | Survivors of Salmonella Newport on food contact surface (Salmonella Newport; 0.7% with 0.0001% saponin microemulsion, Day 0, HDPE): 4.24 Log CFU/mL | Survivors of Salmonella Newport on food contact surface (Salmonella Newport; 0.7% with 0.0001% saponin microemulsion, Day 0, PC): 4.18 Log CFU/mL | Survivors of Salmonella Newport on food contact surface (Salmonella Newport; 0.7% with 0.0001% saponin microemulsion, Day 0, PVC): 4.63 Log CFU/mL | Survivors of Salmonella Newport on food contact surface (Salmonella Newport; 0.7% with 0.0001% saponin microemulsion, Day 1, 304 SS): <1 Log CFU/mL | Survivors of Salmonella Newport on food contact surface (Salmonella Newport; 0.7% with 0.0001% saponin microemulsion, Day 1, 316 SS): <1 Log CFU/mL | Survivors of Salmonella Newport on food contact surface (Salmonella Newport; 0.7% with 0.0001% saponin microemulsion, Day 1, Buna N): <1 Log CFU/mL | Survivors of Salmonella Newport on food contact surface (Salmonella Newport; 0.7% with 0.0001% saponin microemulsion, Day 1, HDPE): <1 Log CFU/mL | Survivors of Salmonella Newport on food contact surface (Salmonella Newport; 0.7% with 0.0001% saponin microemulsion, Day 1, PC): <1 Log CFU/mL | Survivors of Salmonella Newport on food contact surface (Salmonella Newport; 0.7% with 0.0001% saponin microemulsion, Day 1, PVC): <1 Log CFU/mL | Survivors of Salmonella Newport on food contact surface (Salmonella Newport; 0.7% with 0.0001% saponin microemulsion, Day 3, 304 SS): <1 Log CFU/mL | Survivors of Salmonella Newport on food contact surface (Salmonella Newport; 0.7% with 0.0001% saponin microemulsion, Day 3, 316 SS): <1 Log CFU/mL | Survivors of Salmonella Newport on food contact surface (Salmonella Newport; 0.7% with 0.0001% saponin microemulsion, Day 3, Buna N): <1 Log CFU/mL | Survivors of Salmonella Newport on food contact surface (Salmonella Newport; 0.7% with 0.0001% saponin microemulsion, Day 3, HDPE): <1 Log CFU/mL | Survivors of Salmonella Newport on food contact surface (Salmonella Newport; 0.7% with 0.0001% saponin microemulsion, Day 3, PC): <1 Log CFU/mL | Survivors of Salmonella Newport on food contact surface (Salmonella Newport; 0.7% with 0.0001% saponin microemulsion, Day 3, PVC): <1 Log CFU/mL | Survivors of Salmonella Newport on food contact surface (Salmonella Newport; 1% with 0.0001% saponin microemulsion, Day 0, 304 SS): <1 Log CFU/mL | Survivors of Salmonella Newport on food contact surface (Salmonella Newport; 1% with 0.0001% saponin microemulsion, Day 0, 316 SS): <1 Log CFU/mL | Survivors of Salmonella Newport on food contact surface (Salmonella Newport; 1% with 0.0001% saponin microemulsion, Day 0, Buna N): <1 Log CFU/mL | Survivors of Salmonella Newport on food contact surface (Salmonella Newport; 1% with 0.0001% saponin microemulsion, Day 0, HDPE): <1 Log CFU/mL | Survivors of Salmonella Newport on food contact surface (Salmonella Newport; 1% with 0.0001% saponin microemulsion, Day 0, PC): <1 Log CFU/mL | Survivors of Salmonella Newport on food contact surface (Salmonella Newport; 1% with 0.0001% saponin microemulsion, Day 0, PVC): <1 Log CFU/mL | Survivors of Salmonella Newport on food contact surface (Salmonella Newport; 1% with 0.0001% saponin microemulsion, Day 1, 304 SS): <1 Log CFU/mL | Survivors of Salmonella Newport on food contact surface (Salmonella Newport; 1% with 0.0001% saponin microemulsion, Day 1, 316 SS): <1 Log CFU/mL | Survivors of Salmonella Newport on food contact surface (Salmonella Newport; 1% with 0.0001% saponin microemulsion, Day 1, Buna N): <1 Log CFU/mL | Survivors of Salmonella Newport on food contact surface (Salmonella Newport; 1% with 0.0001% saponin microemulsion, Day 1, HDPE): <1 Log CFU/mL | Survivors of Salmonella Newport on food contact surface (Salmonella Newport; 1% with 0.0001% saponin microemulsion, Day 1, PC): <1 Log CFU/mL | Survivors of Salmonella Newport on food contact surface (Salmonella Newport; 1% with 0.0001% saponin microemulsion, Day 1, PVC): <1 Log CFU/mL | Survivors of Salmonella Newport on food contact surface (Salmonella Newport; 1% with 0.0001% saponin microemulsion, Day 3, 304 SS): <1 Log CFU/mL | Survivors of Salmonella Newport on food contact surface (Salmonella Newport; 1% with 0.0001% saponin microemulsion, Day 3, 316 SS): <1 Log CFU/mL | Survivors of Salmonella Newport on food contact surface (Salmonella Newport; 1% with 0.0001% saponin microemulsion, Day 3, Buna N): <1 Log CFU/mL | Survivors of Salmonella Newport on food contact surface (Salmonella Newport; 1% with 0.0001% saponin microemulsion, Day 3, HDPE): <1 Log CFU/mL | Survivors of Salmonella Newport on food contact surface (Salmonella Newport; 1% with 0.0001% saponin microemulsion, Day 3, PC): <1 Log CFU/mL | Survivors of Salmonella Newport on food contact surface (Salmonella Newport; 1% with 0.0001% saponin microemulsion, Day 3, PVC): <1 Log CFU/mL | reduction of S. Newport on iceberg lettuce (S. Newport; 0.1%): 1 log CFU/g | reduction of S. Newport on iceberg lettuce (S. Newport; 0.3%): over 5 log CFU/g | reduction of S. Newport on iceberg lettuce (S. Newport; 0.5%): over 5 log CFU/g
